Results reported in patent US12708602B2, “Fermentation extracts, cosmetic composition and manufacturing method of fermentation extracts” (bioMOA Medical, Inc., priority 2023, dated 2026).

Conditions: dissolved in purified water (FIG. 3)

N[C@@H](CCC(=O)N[C@@H](CS)C(=O)NCC(=O)O)C(=O)O [glutathione powder, glutathione]
precipitation: precipitation occurred from the first day
